Results as given in patent US5763457A, “Method for treating anxiety” (Eli Lilly and Company, priority 1996, dated 1998).
Where two headings read alike, the source gives them in different places.

How the values were obtained:
[1] = target: T1, muscarinic receptors (M1 -site, pirenzepine sensitive site) (Rattus norvegicus, UniProt P08482); assay: inhibition of ^3 HPRZ (pirenzepine, [N-methyl-^3 H]) binding to rat cerebral cortex membranes; details: ^3 HPRZ 1.0 nM, 60 min, 20° C.
T1 construct: from tissue; host or cells: fresh cerebral cortex membranes, male Wistar rat
T1 sequence (P08482 1-460): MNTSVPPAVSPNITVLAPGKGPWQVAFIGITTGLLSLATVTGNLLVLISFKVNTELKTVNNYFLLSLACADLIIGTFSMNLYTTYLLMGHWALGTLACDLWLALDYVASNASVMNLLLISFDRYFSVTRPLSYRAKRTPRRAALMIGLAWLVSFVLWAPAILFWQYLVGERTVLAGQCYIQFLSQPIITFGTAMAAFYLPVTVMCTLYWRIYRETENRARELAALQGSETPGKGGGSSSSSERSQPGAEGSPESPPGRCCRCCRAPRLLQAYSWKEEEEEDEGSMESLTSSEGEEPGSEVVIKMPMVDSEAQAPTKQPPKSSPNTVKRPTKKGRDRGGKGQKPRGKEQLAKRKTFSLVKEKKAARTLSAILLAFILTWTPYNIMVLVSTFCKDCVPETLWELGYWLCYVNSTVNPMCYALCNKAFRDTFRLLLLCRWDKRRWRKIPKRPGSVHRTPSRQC
Experimental: Furthermore the pharmacological properties of the compounds of the invention can also be illustrated by determining their capability to inhibit ^3 HPRZ (pirenzepine, [N-methyl-^3 H]) binding to rat cerebral cortex membranes.
Pirenzepine binds selectively to subtype of muscarinic receptors. Historically the type is named the M1 -site, whereas pirenzepine sensitive site would be more appropriate.
(§1) All preparations are performed at 0°-4° C. unless otherwise indicated. Fresh cortex (0.1-1 9) from male Wistar rats (150-200 g) is homogenized for 5-10 s in 10 mL 20 mM Hepes pH: 7.4, with an Ultra-Turrax homogenizer. The homogenizer is rinsed with 2×10 mL of buffer and the combined suspension centrifuged for 15 min. at 40,000×g. The pellet is washed three times with buffer. In each step the pellet is homogenized as before in 3×10 mL of buffer and centrifuged for 10 min. at 40,000×g.
The final pellet is homogenized in 20 mM Hepes pH: 7.4 (100 mL per g of original tissue) and used for binding assay. Aliquots of 0.5 mL is added 20 μL of test solution and 25 μL of ^3 HPRZ (1.0 nM, final conc.), mixed and incubated for 60 min. at 20° C. Non-specific binding is determined in triplicate using atropine (1.0 μg/mL, final conc.) as the test substance. After incubation samples are added 5 mL of ice-cold buffer and poured directly onto Whatman GF/C glass fiber filters under suction and immediately washed 2 times with 5 mL of ice-cold buffer. The amount of radioactivity on the filters are determined by conventional liquid scintillation counting. Specific binding is total binding minus non-specific binding.
Test substances are dissolved in 10 mL water, at a concentration of 0.22 mg/mL. 25-75% inhibition of specific binding must be obtained before calculation of IC50.
The test value will be given as IC50 (the concentration (nM) of the test substance which inhibits the specific binding of ^3 HPRZ by 50%). IC50 =(applied test substance concentration) x(Cx /Co -Cx)nM where Co is specific binding in control assays and Cx is the specific binding in the test assay. (The calculations assume normal mass-action kinetics).

[2] = target: muscarinic acetylcholine receptors; assay: inhibition of specific binding of ^3 H-Oxotremorine-M (^3 H-Oxo); details: ^3 H-Oxotremorine 1.0 nM, rat cortex, 30 min, 25° C.
Text: The pharmacological properties of the compounds of the invention can be illustrated by determining their capability to inhibit the specific binding of ^3 H-Oxotremorine-M (^3 H-Oxo). Birdsdall N. J. M., Hulme E. C., and Burgen A. S. V. (1980). "The Character of Muscarinic Receptors in Different Regions of the Rat Brain". Proc. Roy. Soc. London (Series B) 207,1.
^3 H-Oxo labels muscarinic receptor in the CNS (with a preference for agonist domains of the receptors). Three different sites are labeled by ^3 H-Oxo. […] Using the present experimental conditions only the high and medium affinity sites are determined.
The inhibitory effects of compounds on ^3 H-oxo binding reflects the affinity for muscarinic acetylcholine receptors.
as §1, with “g)” for “9)”, “(150-250” for “(150-200”, “[…]” for “mM”, “10” for “2×10”, “2×10” for “3×10”
The final pellet is homogenized in […] Hepes pH: 7.4 (100 mL per g of original tissue) and used for binding assay. Aliquots of 0.5 mL is added 25 μL of test solution and 25 μL of ^3 H-Oxotremorine (1.0 nM, final concentration) mixed and incubated for 30 min. at 25° C. Non-specific binding is determined in triplicate using arecoline (1 μg/mL, final concentration) as the test substance. After incubation samples are added 5 mL of ice-cold buffer and poured directly onto Whatman GF/C glass fiber filters under suction and immediately washed 2 times with 5 mL of ice-cold buffer. The amount of radioactivity on the filters are determined by conventional liquid scintillation counting. Specific binding is total binding minus non specific binding.
Test substances are dissolved in 10 mL water (if necessary heated on a steam-bath for less than 5 min.) at a concentration of 2.2 mg/mL. 25-75% inhibition of specific binding must be obtained before calculation of IC50. The test value will be given as IC50 (the concentration (nM) of the test substance which inhibits the specific binding of ^3 H-oxo by 50%). IC50 =(applied test substance concentration) x([…])nM where Co is specific binding in control assays and Cx is the specific binding in the test assay. (The calculations assume normal mass-action kinetics).

5-HT1A receptor = details: literature; cited from earlier work
dopamine receptors = details: literature; cited from earlier work
[3] = target: muscarinic receptor in the CNS; details: cited from earlier work
[4] = in vivo; cited from earlier work
M1 -sites = details: cited from earlier work
M2 -sites = details: cited from earlier work

SMILES	IC50 [1] [nM]	other results
CCCCOc1nonc1OC1CN2CCC1CC2 (racemic) [Compound 1]	56	IC50 [2]: 81 nM
Clc1nccnc1OC1CN2CCC1CC2 (racemic) [Compound 2]	253	IC50 [2]: 374 nM
CCCCOc1nccnc1OC1CN2CCC1CC2 (racemic) [Compound 3]	14.5	IC50 [2]: 19.3 nM
CCCOc1nccnc1OC1CN2CCC1CC2 (racemic) [Compound 4]	21	IC50 [2]: 25 nM
CCCCCCOc1nccnc1OC1CN2CCC1CC2 (racemic) [Compound 5]	32	IC50 [2]: 40 nM
CCCCSc1nccnc1OC1CN2CCC1CC2 (racemic) [Compound 6]	0.9	IC50 [2]: 2.5 nM
CCCCCSc1nccnc1OC1CN2CCC1CC2 (racemic) [Compound 7]	6.7	–
c1cnc(OC2CN3CCC2CC3)cn1 (racemic) [Compound 8]	> 1000	–
CCCCCOc1nccnc1OC1CN2CCC1CC2 (racemic) [Compound 9]	30	–
COc1nccnc1OC1CN2CCC1CC2 (racemic) [Compound 10]	223	–
CCOc1nccnc1OC1CN2CCC1CC2 (racemic) [Compound 11]	53	–
CCCCCCSc1nccnc1OC1CN2CCC1CC2 (racemic) [Compound 12]	13	–
CSc1nccnc1OC1CN2CCC1CC2 (racemic) [Compound 13]	42	–
CCSc1nccnc1OC1CN2CCC1CC2 (racemic) [Compound 14]	21	–
CCCSc1nccnc1OC1CN2CCC1CC2 (racemic) [Compound 15]	13	–
CCCCCCCSc1nccnc1OC1CN2CCC1CC2 (racemic) [Compound 16]	23	–
Clc1nccnc1O[C@H]1CN2CCC[C@@H]1C2 (relative stereo) [Compound 19]	108	–
Cc1nccnc1O[C@H]1CN2CCC[C@@H]1C2 (relative stereo) [Compound 20]	246	–
Clc1cncc(O[C@H]2CN3CCC[C@@H]2C3)n1 (relative stereo) [Compound 22]	52	–
CCCCOc1nccnc1O[C@H]1CN2CCC[C@@H]1C2 (relative stereo) [Compound 23]	2.7	–
CCCCSc1nccnc1O[C@H]1CN2CCC[C@@H]1C2 (relative stereo) [Compound 24]	0.54	–
CCCSc1nccnc1O[C@H]1CN2CCC[C@@H]1C2 (relative stereo) [Compound 29]	0.68	–
CCCCCSc1nccnc1O[C@H]1CN2CCC[C@@H]1C2 (relative stereo) [Compound 30]	0.82	–
CC(C)CSc1nccnc1O[C@H]1CN2CCC[C@@H]1C2 (relative stereo) [Compound 31]	1.7	–

SMILES	IC50 [1] [nM]	other results
CCSc1nccnc1O[C@H]1CN2CCC[C@@H]1C2 (relative stereo) [Compound 32]	4	–
FC(F)(F)CSc1nccnc1O[C@H]1CN2CCC[C@@H]1C2 (relative stereo) [Compound 33]	0.7	–
C/C=C/CSc1nccnc1O[C@H]1CN2CCC[C@@H]1C2 (relative stereo) [Compound 34]	0.66	–
FC(F)(F)CCCSc1nccnc1O[C@H]1CN2CCC[C@@H]1C2 (relative stereo) [Compound 35]	0.54	–
C=CCSc1nccnc1O[C@H]1CN2CCC[C@@H]1C2 (relative stereo) [Compound 36]	5.8	–
CC(C)CCSc1nccnc1O[C@H]1CN2CCC[C@@H]1C2 (relative stereo) [Compound 37]	0.76	–
FC(F)(F)Oc1ccc(CSc2nccnc2O[C@H]2CN3CCC[C@@H]2C3)cc1 (relative stereo) [Compound 38]	3.3	–
CCCSc1cncc(O[C@H]2CN3CCC[C@@H]2C3)n1 (relative stereo) [Compound 39]	80	–
FC(F)(F)CSc1cncc(O[C@H]2CN3CCC[C@@H]2C3)n1 (relative stereo) [Compound 40]	17	–
COCCSc1nccnc1O[C@H]1CN2CCC[C@@H]1C2 (relative stereo) [Compound 41]	1.6	–
C(=Cc1ccccc1)CSc1nccnc1O[C@H]1CN2CCC[C@@H]1C2 (relative stereo) [Compound 42]	4.8	–
CC(C)=CCCSc1nccnc1O[C@H]1CN2CCC[C@@H]1C2 (relative stereo) [Compound 43]	2.2	–
O=C1CC2(CCCC2)CC(=O)N1CCCCN1CCN(c2ncccn2)CC1 [Buspirone]	–	receptor interaction (5-HT1A receptor): interacts with reasonable potency only at the 5-HT1A and dopamine receptors; receptor interaction (dopamine receptors): interacts with reasonable potency only at the 5-HT1A and dopamine receptors
CCCCSc1nccnc1OCCN(C)C [Compound 17]	4.5	–
CCCCSc1nccnc1OCC[N+](C)(C)C [Compound 18]	5.4	–
c1cnc(O[C@H]2CN3CCC[C@@H]2C3)cn1 [Compound 21]	123	–
CN1[C@@H]2CC[C@H]1C[C@@H](Oc1cnccn1)C2 [Compound 25]	680	–
CN(C)CCOc1cnccn1 [Compound 26]	> 1000	–
C[N+](C)(C)CCOc1cnccn1 [Compound 27]	> 1000	–
CN1CCC[C@H]1COc1cnccn1 [Compound 28]	5710	–
C[N+](C)(C)CC#CCN1CCCC1=O [^3 H-Oxo, ^3 H-Oxotremorine-M]	–	Kd ([3]; first (high affinity) site): 1.8 nM; Kd ([3]; second (medium affinity) site): 20 nM; Kd ([3]; third site, not determined under present conditions, read-out: affinity): 3000 nM
CCCC(C)(COC(N)=O)COC(N)=O [meprobamate]	–	side effects [4]: numerous side effects such as potential for abuse and addiction or potentiation of the effects of ethanol
CN1CCN(CC(=O)N2c3ccccc3C(=O)Nc3cccnc32)CC1 [pirenzepine, pirenzepine, [N-methyl-^3 H]]	–	selectivity (M1 -sites): selective for M1 -sites; interaction with M2 -sites (M2 -sites): also interact with M2 -sites
